According to US20240000814A1, “TREATING ALCOHOL USE DISORDER USING PSILOCYBIN” (New York University, priority 2022, published 2024):
Several values for one entry are separate records, joined by “and”; a condition that tells them apart may be missing. Equal entries are not always repeated.

Tests used:
AUD patients [1] = test: Drinking-related problems, Short Index of Problems (SIP-2R); format: in vivo, human; details: week 36
From the text: (§1) The pre-specified primary drinking outcome was the percentage of heavy drinking days (PH DD) during […], assessed at weeks 8, 12, 24, and 36 using the timeline followback, a reliable and valid calendar-based method which is the gold standard outcome for AUD clinical trials.^43-47 Secondary outcomes included percent drinking days (PDD), average drinks per day (DPD), and dichotomous outcomes: abstinence, lack of heavy drinking days, and reduction in World Health Organization risk level^48 by one, two, or three levels. Hair or fingernail samples were collected at week 24 and assayed for ethylglucuronide (EtG) concentration to confirm self-reported abstinence. The Short Index of Problems (SIP-2R)^49 was used to assess drinking-related problems at baseline and weeks 12, 24, and 36.
Treatment contrasts for dichotomous outcomes were obtained using Chi-squared statistics. Effects of treatment on problems related to drinking were compared using univariate mixed models for repeated measures (MMRM) and generalized linear models. Hedges'g was computed as a measure of effect size for between- and within-group differences on continuous outcomes, and odds ratios were computed for dichotomous outcomes. No correction was made for multiple comparisons, so analyses of secondary outcomes should be considered exploratory.

[2] = tested on: alcohol-dependent participants; details: psilocybin 21-28 mg/70 kg, open-label; cited from earlier work
AUD patients [3] = test: Double-blind randomized trial of psilocybin-assisted treatment of AUD: drinking outcomes by timeline followback; format: in vivo, human; details: for % of Heavy drinking days (PHDD), mean: 32-week double-blind follow-up (weeks 5-36) after first dose, oral psilocybin 25 mg/70 kg then 25-40 mg/70 kg or diphenhydramine 50 mg then 50-100 mg at weeks 4 and 8, with psychotherapy; for Abstinence, NNT / Abstinence, OR / No heavy drinking, NNT / No heavy drinking, OR / WHO risk level Decrease 1, NNT / WHO risk level Decrease 1, OR / WHO risk level Decrease 2, NNT / WHO risk level Decrease 2, OR / WHO risk level Decrease 3, NNT / WHO risk level Decrease 3, OR: psilocybin vs diphenhydramine
Description: Design: In this double-blind trial, participants were offered 12 weeks of manualized psychotherapy and were randomly assigned to receive psilocybin vs. diphenhydramine during two day-long medication sessions at week 4 and 8. Outcomes were assessed over the 32-week double-blind period following the first dose of study medication.
Interventions: Study medications were psilocybin 25 mg/70 kg vs. diphenhydramine 50 mg (first session) and psilocybin 25-40 mg/70 kg vs. diphenhydramine 50-100 mg (second session). Psychotherapy included motivational enhancement therapy and cognitive-behavioral therapy.
Qualifying participants were assessed at screening, baseline (week 0), and weeks 4, 5, 8, 9, 12, 24, and 36. They were randomly assigned in a 1:1 ratio to receive either psilocybin or diphenhydramine, administered in two eight-hour sessions at weeks 4 and 8. All participants who completed the double-blind observation period (weeks 5-36) and still met safety criteria were offered an open-label psilocybin session at week 38, including four additional psychotherapy sessions and assessment for an additional 18 weeks. Participants received up to a total of $560 for completing assessments in the course of the trial, but were not reimbursed for attending the therapy and medication sessions.
All participants were offered a total of 12 psychotherapy sessions from a team of two therapists including a licensed psychiatrist: 4 before the first medication session, 4 between the first and second medication sessions, and 4 in the month following the second medication session. The psychotherapy, described in detail in a separate publication,^41 included motivational interviewing and cognitive behavioral therapy for AUD as well as material designed to help the participants to manage and make use of the psychoactive effects of the study medication.
Study medication was taken orally in a single opaque capsule of unvarying appearance and weight. Psilocybin doses were weight-based to control for participant body weight, which ranged from 49.0 to 116.1 (mean=78.3, SD=15.6) kg. Doses for the first session were psilocybin 25 mg/70 kg or diphenhydramine 50 mg. Participants received an increased dose in the second session if there were no dose-limiting adverse events and they agreed to the increase. The increased dose of psilocybin was 30 mg/70 kg if the participant's total score on the Pahnke-Richards Mystical Experience Questionnaire (MEQ)^42 was ≥0.6 in the first session (indicating a robust subjective response to the 25 mg/70 kg dose), or 40 mg/70 kg if the MEQ total score in the first session was <0.6. The increased dose of diphenhydramine was 100 mg, regardless of subjective response.
Study medication was administered at approximately 9 AM, after which participants were required to stay in the session room with the therapists for at least 8 hours (except for bathroom breaks). During the session, participants were encouraged to lie on a couch wearing eyeshades and headphones providing a standardized playlist of music. Medications were available in the session room to treat hypertension, severe anxiety, or psychotic symptoms.
as §1, with “36. […]” for “36.”

AUD patients [4] = test: Safety: blood pressure, heart rate and adverse events in the trial; format: in vivo, human
Description: Blood pressure and heart rate were assessed at 30- to 60-minute intervals during the first 6 hours of each medication session. Adverse events were solicited at each post-screening assessment.
Blood pressure and heart rate treatment contrasts were based on MMRM with fixed, categorical effects of treatment and assessment, a treatment-by-assessment interaction, and a fixed covariate (value of each outcome prior to drug administration). All adverse events occurring after informed consent were MedDRA-coded and tabulated, and prevalence within treatment groups (proportion of participants affected) was compared using Fisher's exact tests.

AUD patients [5] = test: Subjective effects of study medication, Mystical Experience Questionnaire (MEQ); format: in vivo, human
Description: Subjective effects of psilocybin vs. diphenhydramine were assessed using the States of Consciousness Questionnaire,^42 containing the 43-item Mystical Experience Questionnaire (MEQ), completed immediately after each medication session.
MEQ scores for the first and second medication sessions were computed and contrasted by group (psilocybin vs. diphenhydramine) using t-tests for independent samples.

[6] = tested on: alcohol-dependent participants; details: meta-analysis, 95% confidence interval 1.36-2.84; cited from earlier work
[7] = 32-week double-blind follow-up (weeks 5-36)
[8] = 32 weeks following the first administration of study medication
[9] = treatment-emergent, within 48 hours of study drug administration

Structure (SMILES): CN(C)CCc1c[nH]c2cccc(OP(=O)(O)O)c12 [Psilocybin, [3-[2-(dirnethylamino)ethyl]-1H-indo1-4-yl] dihydrogen phosphate]
- Total Problems score, between-group Hedges' g (AUD patients [1]): 0.67
- Total Problems score, between-group mean difference (AUD patients [1]): 6.41
- Tolerability [2]: well tolerated
- % of Drinking days, between-group Hedges g (AUD patients [3]; 32-week double-blind follow-up): 0.4
- % of Drinking days, between-group mean difference (diphenhydramine-psilocybin) (AUD patients [3]; 32-week double-blind follow-up): 13.44%
- Drinks per day, between-group Hedges g (AUD patients [3]; 32-week double-blind follow-up): 0.54
- Drinks per day, between-group mean difference (diphenhydramine-psilocybin) (AUD patients [3]; 32-week double-blind follow-up): 1.09 Drinks per day
- % of Drinking days (PDD), mean (AUD patients [3]; [7]): 29.39%
- % of Heavy drinking days, between-group mean difference (diphenhydramine-psilocybin) (AUD patients [3]; [7]): 13.86%
- Drinks per day (DPD), mean (AUD patients [3]; [7]): 1.17 Drinks per day
- % of Heavy drinking days (PHDD), mean (AUD patients [3]): 9.71%
- % of Heavy drinking days (PHDD), mean (AUD patients [3]; listed as psilocybin): 9.7%
- % of Heavy drinking days, between-group mean difference (diphenhydramine-psilocybin) (AUD patients [3]; 32-week double-blind follow-up (weeks 5-36), listed as psilocybin): 13.86% and 13.9%
- % of Heavy drinking days, between-group Hedges g (AUD patients [3]; 32-week double-blind follow-up, positive = lower mean in psilocybin group): 0.52
- PHDD of psilocybin-treated participants as percent of that in the diphenhydramine-treated group (AUD patients [3]; 32 weeks of double-blind observation): 41%
- Abstinence, % of participants (AUD patients [3]; Weeks 5-36): 22.9%
- Abstinence, No. of participants (AUD patients [3]; Weeks 5-36): 11
- No heavy drinking, % of participants (AUD patients [3]; Weeks 5-36): 33.3%
- No heavy drinking, No. of participants (AUD patients [3]; Weeks 5-36): 16
- WHO risk level Decrease 1, % of participants (AUD patients [3]; Weeks 5-36): 83.3%
- WHO risk level Decrease 2, % of participants (AUD patients [3]; Weeks 5-36): 60.4%
- WHO risk level Decrease 2, No. of participants (AUD patients [3]; Weeks 5-36): 29
- WHO risk level Decrease 3, % of participants (AUD patients [3]; Weeks 5-36): 29.2%
- WHO risk level Decrease 3, No. of participants (AUD patients [3]; Weeks 5-36): 14
- Abstinence, NNT (AUD patients [3]; Weeks 5-36): 7.1
- Abstinence, OR (AUD patients [3]; Weeks 5-36): 3.05
- No heavy drinking, NNT (AUD patients [3]; Weeks 5-36): 4.5
- No heavy drinking, OR (AUD patients [3]; Weeks 5-36): 4
- WHO risk level Decrease 1, NNT (AUD patients [3]; Weeks 5-36): 8.2
- WHO risk level Decrease 1, OR (AUD patients [3]; Weeks 5-36): 2.03
- WHO risk level Decrease 2, NNT (AUD patients [3]; Weeks 5-36): 4.9
- WHO risk level Decrease 2, OR (AUD patients [3]; Weeks 5-36): 2.29
- WHO risk level Decrease 3, NNT (AUD patients [3]; Weeks 5-36): 6.3
- WHO risk level Decrease 3, OR (AUD patients [3]; Weeks 5-36): 2.68
- WHO risk level Decrease 1, No. of participants (AUD patients [3]; Weeks 5-36, relative to 12 weeks prior to screening): 40
- Abstinence, % of participants (AUD patients [3]; Weeks 33-36): 47.9%
- Abstinence, No. of participants (AUD patients [3]; Weeks 33-36): 23
- No heavy drinking, % of participants (AUD patients [3]; Weeks 33-36): 62.5%
- No heavy drinking, No. of participants (AUD patients [3]; Weeks 33-36): 30
- WHO risk level Decrease 1, % of participants (AUD patients [3]; Weeks 33-36): 89.6%
- WHO risk level Decrease 1, No. of participants (AUD patients [3]; Weeks 33-36): 43
- WHO risk level Decrease 2, % of participants (AUD patients [3]; Weeks 33-36): 60.4%
- WHO risk level Decrease 2, No. of participants (AUD patients [3]; Weeks 33-36): 29
- WHO risk level Decrease 3, % of participants (AUD patients [3]; Weeks 33-36): 37.5%
- WHO risk level Decrease 3, No. of participants (AUD patients [3]; Weeks 33-36): 18
- Abstinence, NNT (AUD patients [3]; Weeks 33-36): 4.3
- Abstinence, OR (AUD patients [3]; Weeks 33-36): 2.84
- No heavy drinking, NNT (AUD patients [3]; Weeks 33-36): 4.4
- No heavy drinking, OR (AUD patients [3]; Weeks 33-36): 2.5
- WHO risk level Decrease 1, NNT (AUD patients [3]; Weeks 33-36): 4
- WHO risk level Decrease 1, OR (AUD patients [3]; Weeks 33-36): 4.74
- WHO risk level Decrease 2, NNT (AUD patients [3]; Weeks 33-36): 4.9
- WHO risk level Decrease 2, OR (AUD patients [3]; Weeks 33-36): 2.29
- WHO risk level Decrease 3, NNT (AUD patients [3]; Weeks 33-36): 5.1
- WHO risk level Decrease 3, OR (AUD patients [3]; Weeks 33-36): 2.78
- Adverse events reported, number (AUD patients [4]; [8]): 119
- Serious adverse events (AUD patients [4]; [8]): no serious adverse events
- Time by which blood pressure was no longer significantly elevated (AUD patients [4]; after drug administration): ≤ 360 min
- Time until which heart rate was higher (AUD patients [4]; after drug administration): approximately 300 minutes
- Anxiety and nausea during administration sessions (AUD patients [4]; compared with diphenhydramine): reported more frequently
- Heart rate relative to diphenhydramine group (AUD patients [4]; during medication sessions): higher
- Systolic and diastolic blood pressure relative to diphenhydramine (AUD patients [4]; during medication sessions): increased
- Participants reporting passive suicidal ideation during a medication session (AUD patients [4]; for 15 minutes, resolved without sequelae): One
- Persistent disturbances suggestive of psychosis or hallucinogen persisting perception disorder (AUD patients [4]; in vivo): no persistent disturbances
- Severity of adverse events associated with administration (AUD patients [4]; in vivo): mostly mild and self-limiting
- Participants given diazepam 10 mg by mouth for anxiety (AUD patients [4]; second medication session): Two
- Headaches, participants affected / treated (AUD patients [4]; [9]): 21/48
- Headaches, percent of participants (AUD patients [4]; [9]): 43.8%
- Mean MEQ score (AUD patients [5]; Session 1, psilocybin 25 mg/70 kg or diphenhydramine 50 mg): 0.59 (SD=0.24)
- Mean MEQ score (AUD patients [5]; Session 2, psilocybin 25-40 mg/70 kg or diphenhydramine 50-100 mg): 0.64 (SD=0.21)

Structure (SMILES): CCN(CC)C(=O)[C@@H]1C=C2c3cccc4[nH]cc(c34)C[C@H]2N(C)C1 [lysergic acid diethylamide (LSD), lysergic acid diethylamide]
- Odds ratio of remission during follow-up vs comparator conditions [6]: 1.96
